One data set is described as follows: recombinant barcode read abundance after kanamycin selection (control-corrected) (log10(CPM+1)); higher = more efficient recombination; sequences stand for … in AGTGCAGAGAAAATCGGCCAGTTTTCTCTGCCTGCAGTCCGCATGCCGT…AGATTTATGCAGCGGACTGCCTTTCTCCCAAAGTGATAAACCGGACAGTATCATGGACCGGTTTTCCCGGTAATCCGTATTTGCAAGGTTGGTTTCACT; site = the 11-nt target. Summed up:
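Recombination efficiency comes from barcode counts at recombinant junctions, converted to counts per million, averaged and corrected against the control. Values appear as log10(CPM+1). They were obtained from a pooled E. coli screen in which each oligo paired a target with an IS621 bridge RNA target-binding loop, and cells were plated in duplicate on chloramphenicol/ampicillin LB agar or on chloramphenicol/ampicillin/kanamycin with 0.1 mM IPTG.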
As for “TTCTGAACTTGGGTTCTAACCTGTTGCCT (site TTCTGAACTAG)”, the “recombinant barcode read abundance (log10)” value was determined as 0.126. On the same count and under the same terms, in the case of “TTCTTACCTTGGGTTCTAACCTGTTGCCT (site TACTTACCTAG)” it was 0.0709; in that of “TTCTTACCTTGGGTTCTAACCTGTTGCCT (site TTCTTACCTAG)”, 0.654; in that of “TTCTTGCCTTGGGTTCTAACCTGTTGCCT (site TTATTGTCTAG)”, 0.111. Still for that read-out and setting: in the case of “TTCTTGCCTTGGGTTCTAACCTGTTGCCT (site TTCTTGCCTAG)” it was 0.665. Same read-out and setting: in the case of “TTCTTTCCTTGGGTTCTAACCTGTTGCCT (site TTCTATCCTAG)” it was 0.0663.

For “TTCTTTCCTTGGGTTCTAACCTGTTGCCT (site TTCTCTCCTAG)”, the “recombinant barcode read abundance (log10)” value was 0.0684. Turning to “TTCTTTCCTTGGGTTCTAACCTGTTGCCT (site TTCTGTCCTAG)”, the “recombinant barcode read abundance (log10)” value is 0.0839. Same read-out and setting: as for “TTCTTTCCTTGGGTTCTAACCTGTTGCCT (site TTCTTTCCTAG)”, the figure is 0.11; as for “TTGACGACTTGGGTTCTAACCTGTTGCCA (site TTGACGACTTG)”, 0.36. On to “TTGACGACTTGGGTTCTAACCTGTTGCCA (site TTGCCGACTTG)”, for which the “recombinant barcode read abundance (log10)” value amounted to 0.217. Turning to “TTGACGACTTGGGTTCTAACCTGTTGCCA (site TTGGCGACTTG)”, the “recombinant barcode read abundance (log10)” value came out at 0.116. On the same count and under the same terms, in the case of “TTGACGACTTGGGTTCTAACCTGTTGCCA (site TTGTCGACTTG)” it was 0.0686; in that of “TTGACGGCTTGGGTTCTAACCTGTTGCCT (site CCATTCCCTTA)”, 0.041. The same measure, in the same setting: in the case of “TTGACGGCTTGGGTTCTAACCTGTTGCCT (site TTGACGGCTAG)” it was 0.165. “TTGAGGACTTGGGTTCTAACCTGTTGCCT (site ATGAGGACTAG)”: the “recombinant barcode read abundance (log10)” value was 0.0377. Turning to “TTGAGGACTTGGGTTCTAACCTGTTGCCT (site CTGAGGACTAG)”, the “recombinant barcode read abundance (log10)” value amounted to 0.146. As for “TTGAGGACTTGGGTTCTAACCTGTTGCCT (site GTGAGGACTAG)”, the “recombinant barcode read abundance (log10)” value amounted to 0.

As to “TTGAGGACTTGGGTTCTAACCTGTTGCCT (site TTGAGGACTAG)”, the “recombinant barcode read abundance (log10)” value stood at 0.606. On to “TTGAGGCCTTGGGTTCTAACCTGTTGCGG (site TCGAGTCCTCC)”, for which the “recombinant barcode read abundance (log10)” value amounted to 0.141. As to “TTGAGGCCTTGGGTTCTAACCTGTTGCGG (site TTGAGGCCTCC)”, the “recombinant barcode read abundance (log10)” value amounted to 2.39. Take “TTGAGTGCTTGGGTTCTAACCTGTTGCCT (site TTGAATGCTAG)”: the “recombinant barcode read abundance (log10)” value came out at 0.259.

Take “TTGAGTGCTTGGGTTCTAACCTGTTGCCT (site TTGACTGCTAG)”: the “recombinant barcode read abundance (log10)” value came out at 0.0508. The same measure, in the same setting: in the case of “TTGAGTGCTTGGGTTCTAACCTGTTGCCT (site TTGAGTGCTAG)” it was 0.804. Regarding “TTGAGTGCTTGGGTTCTAACCTGTTGCCT (site TTGATTGCTAG)”, the “recombinant barcode read abundance (log10)” value amounted to 0.254. Turning to “TTGATTGCTTGGGTTCTAACCTGTTGCCT (site TTGAATGCTAG)”, the “recombinant barcode read abundance (log10)” value came out at 0.0762. Still for that read-out and setting: in the case of “TTGATTGCTTGGGTTCTAACCTGTTGCCT (site TTGACTGCTAG)” it was 0.0306; in that of “TTGATTGCTTGGGTTCTAACCTGTTGCCT (site TTGAGTGCTAG)”, 0.425. Regarding “TTGATTGCTTGGGTTCTAACCTGTTGCCT (site TTGATTGCTAG)”, the “recombinant barcode read abundance (log10)” value is 0.497.

Take “TTGCGTGCTTGGGTTCTAACCTGTTGCTT (site TTGCGAGCTAT)”: the “recombinant barcode read abundance (log10)” value came to 0.27. On the same count and under the same terms, in the case of “TTGCGTGCTTGGGTTCTAACCTGTTGCTT (site TTGCGTGCTAA)” it was 0.518; in that of “TTGCTAGCTTGGGTTCTAACCTGTTGCGG (site GGAACTACTGT)”, 0.0762; in that of “TTGCTAGCTTGGGTTCTAACCTGTTGCGG (site TTGCTAGCTCC)”, 1.56. Take “TTGGAAGCTTGGGTTCTAACCTGTTGCCT (site TTGGAAGCTAG)”: the “recombinant barcode read abundance (log10)” value stood at 2.1. The same measure, in the same setting: as for “TTGGAAGCTTGGGTTCTAACCTGTTGCCT (site TTGGCAGCTAG)”, the figure is 0.0513; as for “TTGGAAGCTTGGGTTCTAACCTGTTGCCT (site TTGGGAGCTAG)”, 0.541; as for “TTGGAAGCTTGGGTTCTAACCTGTTGCCT (site TTGGTAGCTAG)”, 2.19. Same read-out and setting: as for “TTGGAGGCTTGGGTTCTAACCTGTTGCCT (site AGCAGTACTTA)”, the figure is 0.0388; as for “TTGGAGGCTTGGGTTCTAACCTGTTGCCT (site TTGGAGGCTAG)”, 1.45; as for “TTGGATCCTTGGGTTCTAACCTGTTGCCT (site TTGGATCCTAA)”, 0.382. Same read-out and setting: as for “TTGGATCCTTGGGTTCTAACCTGTTGCCT (site TTGGATCCTAG)”, the figure is 2.31. For “TTGGCGCCTTGGGTTCTAACCTGTTGCCT (site TCGGCTCCTAG)”, the “recombinant barcode read abundance (log10)” value was determined as 0.0935.

“TTGGCGCCTTGGGTTCTAACCTGTTGCCT (site TTGGCGCCTAG)”: the “recombinant barcode read abundance (log10)” value came to 0.529. Turning to “TTGGGAGCTTGGGTTCTAACCTGTTGCCT (site TTGGAAGCTAG)”, the “recombinant barcode read abundance (log10)” value came to 0.984.

With “TTGGGAGCTTGGGTTCTAACCTGTTGCCT (site TTGGCAGCTAG)”, the “recombinant barcode read abundance (log10)” value stood at 0.11. On the same count and under the same terms, as for “TTGGGAGCTTGGGTTCTAACCTGTTGCCT (site TTGGGAGCTAG)”, the figure is 2.26. “TTGGGAGCTTGGGTTCTAACCTGTTGCCT (site TTGGTAGCTAG)”: the “recombinant barcode read abundance (log10)” value is 0.442. For “TTGGGCGCTTGGGTTCTAACCTGTTGCCT (site TTGGACGCTAG)”, the “recombinant barcode read abundance (log10)” value amounted to 0.0866.

Take “TTGGGCGCTTGGGTTCTAACCTGTTGCCT (site TTGGCCGCTAG)”: the “recombinant barcode read abundance (log10)” value stood at 0.154.

On to “TTGGGCGCTTGGGTTCTAACCTGTTGCCT (site TTGGGCGCTAG)”, for which the “recombinant barcode read abundance (log10)” value amounted to 0.643. Consider “TTGGGCGCTTGGGTTCTAACCTGTTGCCT (site TTGGTCGCTAG)”, for which the “recombinant barcode read abundance (log10)” value was 0.0335. With “TTGGTCACTTGGGTTCTAACCTGTTGCCT (site TTGGACACTAG)”, the “recombinant barcode read abundance (log10)” value was found to be 0.358. The same measure, in the same setting: in the case of “TTGGTCACTTGGGTTCTAACCTGTTGCCT (site TTGGCCACTAG)” it was 0.309; in that of “TTGGTCACTTGGGTTCTAACCTGTTGCCT (site TTGGGCACTAG)”, 0.205; in that of “TTGGTCACTTGGGTTCTAACCTGTTGCCT (site TTGGTCACTAG)”, 2.1. In the case of “TTGGTCGCTTGGGTTCTAACCTGTTGCCT (site TTGGACGCTAG)”, the “recombinant barcode read abundance (log10)” value came out at 0.0736. Same read-out and setting: in the case of “TTGGTCGCTTGGGTTCTAACCTGTTGCCT (site TTGGCCGCTAG)” it was 1.4.

For the sequence “TTGGTCGCTTGGGTTCTAACCTGTTGCCT (site TTGGGCGCTAG)”, the “recombinant barcode read abundance (log10)” value is 0.085.

In the case of “TTGGTCGCTTGGGTTCTAACCTGTTGCCT (site TTGGTCGCTAG)”, the “recombinant barcode read abundance (log10)” value came out at 1.71.

As to “TTGTAGACTTGGGTTCTAACCTGTTGCCT (site TTGATGACTAG)”, the “recombinant barcode read abundance (log10)” value was found to be 0.484. The same measure, in the same setting: as for “TTGTAGACTTGGGTTCTAACCTGTTGCCT (site TTGTAGACTAG)”, the figure is 1.22. As to “TTGTGTTCTTGGGTTCTAACCTGTTGCTA (site GTGTGTTCTTG)”, the “recombinant barcode read abundance (log10)” value amounted to 0.0284. Same read-out and setting: in the case of “TTGTGTTCTTGGGTTCTAACCTGTTGCTA (site TTGTGTTCTTA)” it was 0.465.

A further data set is described as follows: recombinant barcode read abundance after kanamycin selection (control-corrected) (log10(CPM+1)); higher = more efficient recombination; sequences stand for … in AGTGCAGAGAAAATCGGCCAGTTTTCTCTGCCTGCAGTCCGCATGCCGT…ATTTATGCAGCGGACTGCCTTTCTCCCAAAGTGATAAACCGGACAGTATCATGGACCGGTTTTCCCGGTAATCCGTATTTGCAAGGTTGGTTTCACT; site = the 11-nt target. The protocol: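 Same pooled E. coli target screen (IS621 bridge recombinase, kanamycin selection, control-corrected CPM, mean of 2 biological replicates). Here the two core-binding nucleotides of the LTG and RTG of the bridge RNA target-binding loop are mutated. Target and donor CT cores are held constant, and the other 9 guide positions match the target. The target is read from the library oligo sequence. Molecule = full bridge RNA written as DNA: nt 1-80 from the library oligo, rest WT scaffold.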
As to “AAACACAACTGGGTTCTAACCTGTTGCCTGT [AAACACACTAG_LTGcore_AC_RTGcore_AC] (site AAACACACTAG) (LTG core: AC, RTG core: AC)”, the “recombinant barcode read abundance (log10)” value was determined as 0.0446.

“AAACACAATTGGGTTCTAACCTGTTGCCTAT [AAACACACTAG_LTGcore_AT_RTGcore_AT] (site AAACACACTAG) (LTG core: AT, RTG core: AT)”: the “recombinant barcode read abundance (log10)” value is 0.209. Same read-out and setting: as for “AAACACACTTGGGTTCTAACCTGTTGCCTCT [AAACACACTAG_LTGcore_CT_RTGcore_AG] (site AAACACACTAG) (LTG core: CT, RTG core: AG)”, the figure is 2.46; as for “AAACACACTTGGGTTCTAACCTGTTGCCTGA [AAACACACTAG_LTGcore_CT_RTGcore_TC] (site AAACACACTAG) (LTG core: CT, RTG core: TC)”, 1.19; as for “AAACACACTTGGGTTCTAACCTGTTGCCTTC [AAACACACTAG_LTGcore_CT_RTGcore_GA] (site AAACACACTAG) (LTG core: CT, RTG core: GA)”, 0.477.
